# Where “and” joins values, the source holds several entries; their conditions need not be identical. Identical values can stand only once.
# Experiments:
# Mus musculus [1] = assay: Analgesic activity in albino mouse assessed as forepaw licking/jumping latency time at 10 mg/kg, ip measured after 30 mins by hot plate test (reference value: 5.02 +/- 0.09 sec); type: functional; details: 0.5 h
# Rattus norvegicus [2] = assay: Anti-inflammatory activity in Wistar rat assessed as inhibition of carrageenan-induced paw edema at 10 mg/kg, ip pretreated for 1 hr followed by carrageenan challenge and measured after 2 hr relative to control (reference value: 0.00 +/-0.03 %); type: functional; details: time 3 hrs
# Mus musculus [3] = assay: Analgesic activity in albino mouse assessed as protection at 10 mg/kg, ip measured after 60 mins by hot plate test (reference value: 0 %); type: functional; details: 1 h
# Rattus norvegicus [4] = assay: Antiinflammatory activity in Wistar rat model of carrageenan-induced paw edema assessed as reduction in thickness of paw edema at 10 mg/kg, ip pretreated for 1 hr followed by carrageenan challenge and measured after 3 hrs (reference value: 1.79 +/-0.07 mm); type: functional; details: time 4 hrs
# Mus musculus [5] = assay: Analgesic activity in albino mouse assessed protection against acetic acid-induced abdominal writhing at 10 mg/kg, ip pretreated for 1 hr followed by acetic acid challenge and measured starting 5 mins post acetic acid challenge for 10 mins relative to control (reference value: 0 %); type: functional; details: time 75 min, 1.25 h
# Mus musculus [6] = assay: Analgesic activity in albino mouse assessed reduction in acetic acid-induced abdominal writhing by measuring writing reflex at 10 mg/kg, ip pretreated for 1 hr followed by acetic acid challenge and measured starting 5 mins post acetic acid challenge for 10 mins (reference value: 42.4 +/- 1.02); type: functional; details: time 75 min, 1.25 h
# Salmonella typhimurium = assay: Antibacterial activity against Salmonella typhimurium ATCC 19430 incubated for 18 hrs by agar dilution assay; type: functional, Salmonella enterica subsp. enterica serovar Typhimurium; details: Salmonella enterica
# [7] = Ulcerogenic activity in fasted albino mouse assessed as incidence of gastric ulceration at 10 mg/kg, po for 3 days (reference value: 0 %); type: toxicity, organism-based; details: in vivo, 72 h, time 3 day
# Rattus norvegicus [8] = assay: Anti-inflammatory activity in Wistar rat assessed as inhibition of carrageenan-induced paw edema at 10 mg/kg, ip pretreated for 1 hr followed by carrageenan challenge and measured after 4 hr relative to indomethacin; type: functional; details: time 5 hrs
# Splenocyte [9] = assay: Immunomodulatory activity in Swiss albino mouse splenocytes assessed as cell viability at 10 uM by measuring stimulation index incubated for 72 hrs in presence of mitogenic stimulus phytohaemagglutinin by MTT assay (reference value: 1.00 +/- 0.24); type: functional
# [10] = Ulcerogenic activity in fasted albino mouse assessed as ulcer index in gastric mucosa at 10 mg/kg, po for 3 days (reference value: 0); type: toxicity, organism-based; details: in vivo, 72 h, time 3 day
# Splenocyte [11] = assay: Immunomodulatory activity in Swiss albino mouse splenocytes assessed as cell viability at 10 uM by measuring inhibition of stimulation index incubated for 72 hrs in presence of mitogenic stimulus phytohaemagglutinin by MTT assay relative to indomethacin; type: functional; details: read-out: Activity
# [12] = Ulcerogenic activity in fasted albino mouse assessed as average severity of ulcers in gastric mucosa at 10 mg/kg, po for 3 days (reference value: 0); type: toxicity, organism-based; details: in vivo, 72 h, time 3 day
# Mus musculus [13] = assay: Analgesic activity in albino mouse assessed as forepaw licking/jumping latency time at 10 mg/kg, ip measured after 120 mins by hot plate test (reference value: 2.62 +/- 0.06 sec); type: functional; details: 2 h
# Mus musculus [14] = assay: Analgesic activity in albino mouse assessed as forepaw licking/jumping latency time at 10 mg/kg, ip measured after 60 mins by hot plate test (reference value: 3.42 +/- 0.03 sec); type: functional; details: 1 h
# Rattus norvegicus [15] = assay: Antiinflammatory activity in Wistar rat model of carrageenan-induced paw edema assessed as reduction in thickness of paw edema at 10 mg/kg, ip pretreated for 1 hr followed by carrageenan challenge and measured after 2 hrs (reference value: 2.06 +/-0.09 mm); type: functional; details: time 3 hrs
# Rattus norvegicus [16] = assay: Antiinflammatory activity in Wistar rat model of carrageenan-induced paw edema assessed as reduction in thickness of paw edema at 10 mg/kg, ip pretreated for 1 hr followed by carrageenan challenge and measured after 24 hrs (reference value: 0.83 +/-0.08 mm); type: functional; details: time 25 hrs
# Mus musculus [17] = assay: Analgesic activity in albino mouse assessed as protection at 10 mg/kg, ip measured after 120 mins by hot plate test relative to indomethacin; type: functional; details: 2 h
# Rattus norvegicus [18] = assay: Anti-inflammatory activity in Wistar rat assessed as inhibition of carrageenan-induced paw edema at 10 mg/kg, ip pretreated for 1 hr followed by carrageenan challenge and measured after 24 hr relative to control (reference value: 0.00 +/-0.3 %); type: functional; details: time 25 hrs
# Mus musculus [19] = assay: Analgesic activity in albino mouse assessed as protection at 10 mg/kg, ip measured after 30 mins by hot plate test (reference value: 0 %); type: functional; details: 0.5 h
# [20] = Toxicity in albino mouse assessed as induction of toxic symptoms at 50 to 100 mg/kg, ip measured after 24 hrs; type: organism-based; details: in vivo, dose 50-100 mg/kg
# Rattus norvegicus [21] = assay: Anti-inflammatory activity in Wistar rat assessed as inhibition of carrageenan-induced paw edema at 10 mg/kg, ip pretreated for 1 hr followed by carrageenan challenge and measured after 3 hr relative to control (reference value: 0.00 +/-0.1 %); type: functional; details: time 4 hrs
# Rattus norvegicus [22] = assay: Antiinflammatory activity in Wistar rat model of carrageenan-induced paw edema assessed as reduction in thickness of paw edema at 10 mg/kg, ip pretreated for 1 hr followed by carrageenan challenge and measured after 4 hrs (reference value: 1.40 +/-0.10 mm); type: functional; details: time 5 hrs
# Mus musculus [23] = assay: Analgesic activity in albino mouse assessed as protection at 10 mg/kg, ip measured after 90 mins by hot plate test (reference value: 0 %); type: functional; details: 1.5 h
# Rattus norvegicus [24] = assay: Antiinflammatory activity in Wistar rat model of carrageenan-induced paw edema assessed as reduction in thickness of paw edema at 10 mg/kg, ip pretreated for 1 hr followed by carrageenan challenge and measured after 1 hr (reference value: 2.41 +/-0.05 mm); type: functional; details: time 1 hr after carrageenan
# Staphylococcus aureus = assay: Antibacterial activity against Staphylococcus aureus ATCC 25923 incubated for 18 hrs by agar dilution method; type: functional
# [25] = Ulcerogenic activity in fasted albino mouse assessed as average number of ulcers in gastric mucosa at 10 mg/kg, po for 3 days (reference value: 0); type: toxicity, organism-based; details: in vivo, 72 h, time 3 day
# Candida albicans = assay: Antifungal activity against Candida albicans incubated for 18 to 24 hrs by CLSI method; type: functional; details: time 18-24 hrs
# Mus musculus [26] = assay: Analgesic activity in albino mouse assessed as protection at 10 mg/kg, ip measured after 120 mins by hot plate test (reference value: 0 %); type: functional; details: 2 h
# Pseudomonas aeruginosa = assay: Antibacterial activity against Pseudomonas aeruginosa ATCC 27853 incubated for 18 hrs by agar dilution assay; type: functional
# Rattus norvegicus [27] = assay: Anti-inflammatory activity in Wistar rat assessed as inhibition of carrageenan-induced paw edema at 10 mg/kg, ip pretreated for 1 hr followed by carrageenan challenge and measured after 4 hr relative to control (reference value: 0.00 +/-0.4 %); type: functional; details: time 5 hrs
# Mus musculus [28] = assay: Analgesic activity in albino mouse assessed protection against acetic acid-induced abdominal writhing at 10 mg/kg, ip pretreated for 1 hr followed by acetic acid challenge and measured starting 5 mins post acetic acid challenge for 10 mins relative to indomethacin; type: functional; details: time 75 min, 1.25 h
# Mus musculus [29] = assay: Analgesic activity in albino mouse assessed as forepaw licking/jumping latency time at 10 mg/kg, ip measured after 90 mins by hot plate test (reference value: 2.72 +/- 0.01 sec); type: functional; details: 1.5 h
# Rattus norvegicus [30] = assay: Anti-inflammatory activity in Wistar rat assessed as inhibition of carrageenan-induced paw edema at 10 mg/kg, ip pretreated for 1 hr followed by carrageenan challenge and measured after 1 hr relative to control (reference value: 0.00 +/-0.02 %); type: functional; details: time 2 hrs
# Streptococcus pyogenes = assay: Antibacterial activity against Streptococcus pyogenes ATCC 19615 incubated for 18 hrs by agar dilution method; type: functional
# Peritoneal macrophage [31] = assay: Antiinflammatory activity in […] mouse Peritoneal macrophages assessed as reduction in LPS-induced NO production by measuring reduction in stimulation index at 10 uM preincubated for 1 hr followed by LPS stimulation measured after 24 hrs by Griess method (reference value: 27.31 +/- 2.56 uM); type: functional; details: time 25 hrs
# Peritoneal macrophage [32] = assay: Antiinflammatory activity in […] mouse Peritoneal macrophages assessed as inhibition of LPS-induced NO production at 10 uM preincubated for 1 hr followed by LPS stimulation measured after 24 hrs by Griess method relative to control (reference value: 0.0 %); type: functional; set-up: scale not given: the % may be the effect or the level left; details: time 25 hrs
compound,measurement,setting,value
COc1cc(/C=C/C(=O)/C=C(O)/C=C/c2ccc(OC(=O)[C@@H](CCSC)NC(=O)OC(C)(C)C)c(OC)c2)ccc1OC(=O)[C@@H](CCSC)NC(=O)OC(C)(C)C,Time,Mus musculus [1],5.14 s
same,inhibition in vivo at 10 mg/kg,Rattus norvegicus [2],69%
same,Activity,Mus musculus [3],60.2%
same,Activity,Rattus norvegicus [4],0.47 mm
same,Activity,Mus musculus [5],53.8%
same,Activity,Mus musculus [6],19.6
same,MIC,Salmonella typhimurium,1 µg/mL and 1.2 µM
same,Activity,[7],0%
same,inhibition in vivo at 10 mg/kg,Rattus norvegicus [8],102%
same,Activity_index,Splenocyte [9],2.53
same,UI,[10],0
same,viability at 10 µM,Splenocyte [11],47.7%
same,Activity,[12],0
same,Time,Mus musculus [13],4.48 s
same,Time,Mus musculus [14],5.48 s
same,Activity,Rattus norvegicus [15],0.63 mm
same,Activity,Rattus norvegicus [16],0.49 mm
same,Activity,Mus musculus [17],169%
same,inhibition in vivo at 10 mg/kg,Rattus norvegicus [18],41%
same,Activity,Mus musculus [19],2.4%
same,Activity,[20],Non-Toxic
same,inhibition in vivo at 10 mg/kg,Rattus norvegicus [21],74%
same,Activity,Rattus norvegicus [22],0.15 mm
same,Activity,Mus musculus [23],77.2%
same,Activity,Rattus norvegicus [24],1.1 mm
same,MIC,Staphylococcus aureus,0.25 µg/mL and 0.301 µM
same,Activity,[25],0
same,MIC,Candida albicans,0.5 µg/mL and 0.602 µM
same,Activity,Mus musculus [26],71%
same,MIC,Pseudomonas aeruginosa,0.25 µg/mL and 0.301 µM
same,inhibition in vivo at 10 mg/kg,Rattus norvegicus [27],89%
same,Activity,Mus musculus [28],87.3%
same,Time,Mus musculus [29],4.82 s
same,inhibition in vivo at 10 mg/kg,Rattus norvegicus [30],58%
same,MIC,Streptococcus pyogenes,0.125 µg/mL and 0.15 µM
COc1cc(/C=C/C(=O)/C=C(O)/C=C/c2ccc(OC(=O)C(C)NC(=O)OCc3ccccc3)c(OC)c2)ccc1OC(=O)C(C)NC(=O)OCc1ccccc1 (configuration not stated),Time,Mus musculus [1],6.26 s
same,inhibition in vivo at 10 mg/kg,Rattus norvegicus [2],87%
same,Activity,Mus musculus [3],53.2%
same,Activity,Rattus norvegicus [4],0.05 mm
same,Activity,Mus musculus [5],53.4%
same,Activity,Mus musculus [6],19.75
same,Activity,Peritoneal macrophage [31],14.91 µM
same,MIC,Salmonella typhimurium,0.5 µg/mL and 0.642 µM
same,Activity,[7],3.33%
same,inhibition in vivo at 10 mg/kg,Rattus norvegicus [8],115%
same,Activity_index,Splenocyte [9],1.18
same,UI,[10],4.67
same,viability at 10 µM,Splenocyte [11],103%
same,Activity,[12],0.67
same,Time,Mus musculus [13],3.12 s
same,Time,Mus musculus [14],5.24 s
same,Activity,Rattus norvegicus [15],0.26 mm
same,Activity,Rattus norvegicus [16],0 mm
same,Activity,Mus musculus [17],45.5%
same,inhibition in vivo at 10 mg/kg,Rattus norvegicus [18],100%
same,Activity,Mus musculus [19],24.7%
same,Activity,[20],Non-Toxic
same,inhibition in vivo at 10 mg/kg,Rattus norvegicus [21],97%
same,Activity,Rattus norvegicus [22],0 mm
same,Activity,Mus musculus [23],18.4%
same,Activity,Rattus norvegicus [24],0.67 mm
same,MIC,Staphylococcus aureus,0.5 µg/mL and 0.642 µM
same,Activity,[25],0.67
same,MIC,Candida albicans,0.5 µg/mL and 0.642 µM
same,Activity,Mus musculus [26],19.1%
same,MIC,Pseudomonas aeruginosa,0.25 µg/mL and 0.321 µM
same,inhibition in vivo at 10 mg/kg,Rattus norvegicus [27],100%
same,Activity,Mus musculus [28],86.7%
same,Activity,Peritoneal macrophage [32],45.41%
same,Time,Mus musculus [29],3.22 s
same,inhibition in vivo at 10 mg/kg,Rattus norvegicus [30],72%
same,MIC,Streptococcus pyogenes,0.125 µg/mL and 0.161 µM
